The results in this text go back to patent publication US8173813B2, “Quinolone and tetrahydroquinolone and related compounds having NOS inhibitory activity” (NeurAxon, Inc., priority 2007, dated 2012).

Type in all cases: biochemical
Experiment [1] deals with Nitric oxide synthase (neuronal, human recombinant) nNOS (Homo sapiens, UniProt P29475). Briefly: Human nNOS enzyme assay ([3H]L-arginine to [3H]L-citrulline).
The target in experiment [2] is Nitric oxide synthase (endothelial, human recombinant) eNOS (Homo sapiens, UniProt P29474). The experiment in a line: Human eNOS enzyme assay ([3H]L-arginine to [3H]L-citrulline).
Experiment [3] has as its target Recombinant human inducible NOS (iNOS) (Homo sapiens, UniProt P35228). The experiment in a line: Human iNOS enzyme assay, radiometric.
The mark [4] stands for this setting: human recombinant iNOS, values without parentheses, read-out: hiNOS IC50.
[5] abbreviates: human recombinant nNOS, values without parentheses, read-out: hnNOS IC50.
Where [6] appears, read: human recombinant eNOS, values without parentheses, read-out: heNOS IC50.
[7] abbreviates: human enzymes, ratio of eNOS IC50 to nNOS IC50.

Read-outs that look alike come from different tables or passages of the source. Where only a bound is given, the exact number is not on record here.

Sequence of Recombinant human inducible NOS (iNOS) (P35228 whole entry): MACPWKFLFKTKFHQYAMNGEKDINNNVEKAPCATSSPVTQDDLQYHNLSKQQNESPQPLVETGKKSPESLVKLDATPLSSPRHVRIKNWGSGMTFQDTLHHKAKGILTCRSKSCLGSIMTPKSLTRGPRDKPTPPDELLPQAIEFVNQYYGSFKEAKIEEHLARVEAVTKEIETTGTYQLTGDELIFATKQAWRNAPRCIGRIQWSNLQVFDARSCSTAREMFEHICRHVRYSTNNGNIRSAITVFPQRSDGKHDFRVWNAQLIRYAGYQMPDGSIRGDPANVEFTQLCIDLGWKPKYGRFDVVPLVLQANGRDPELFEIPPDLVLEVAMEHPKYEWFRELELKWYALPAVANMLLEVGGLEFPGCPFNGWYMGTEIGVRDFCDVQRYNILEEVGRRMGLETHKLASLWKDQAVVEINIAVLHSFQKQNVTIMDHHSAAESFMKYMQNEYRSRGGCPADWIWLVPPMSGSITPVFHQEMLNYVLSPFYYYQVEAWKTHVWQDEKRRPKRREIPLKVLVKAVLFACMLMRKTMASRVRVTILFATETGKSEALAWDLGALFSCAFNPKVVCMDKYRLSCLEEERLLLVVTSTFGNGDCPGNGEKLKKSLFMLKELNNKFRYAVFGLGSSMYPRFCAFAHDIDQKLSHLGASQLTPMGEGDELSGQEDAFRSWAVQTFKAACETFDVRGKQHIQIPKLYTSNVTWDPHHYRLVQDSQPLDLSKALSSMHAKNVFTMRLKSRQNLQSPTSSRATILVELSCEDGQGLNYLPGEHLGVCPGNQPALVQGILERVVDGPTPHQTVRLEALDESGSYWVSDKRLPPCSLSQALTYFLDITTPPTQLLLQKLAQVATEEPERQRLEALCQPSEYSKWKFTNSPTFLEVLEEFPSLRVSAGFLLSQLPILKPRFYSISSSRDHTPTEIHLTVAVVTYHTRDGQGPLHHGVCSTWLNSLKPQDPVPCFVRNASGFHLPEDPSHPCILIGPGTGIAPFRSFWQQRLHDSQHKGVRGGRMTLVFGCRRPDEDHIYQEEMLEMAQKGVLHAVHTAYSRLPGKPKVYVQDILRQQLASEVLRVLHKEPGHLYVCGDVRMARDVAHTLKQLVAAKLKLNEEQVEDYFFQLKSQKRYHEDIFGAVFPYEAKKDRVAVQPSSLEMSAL
Sequence of Nitric oxide synthase (endothelial, human recombinant) eNOS (P29474 2-1203): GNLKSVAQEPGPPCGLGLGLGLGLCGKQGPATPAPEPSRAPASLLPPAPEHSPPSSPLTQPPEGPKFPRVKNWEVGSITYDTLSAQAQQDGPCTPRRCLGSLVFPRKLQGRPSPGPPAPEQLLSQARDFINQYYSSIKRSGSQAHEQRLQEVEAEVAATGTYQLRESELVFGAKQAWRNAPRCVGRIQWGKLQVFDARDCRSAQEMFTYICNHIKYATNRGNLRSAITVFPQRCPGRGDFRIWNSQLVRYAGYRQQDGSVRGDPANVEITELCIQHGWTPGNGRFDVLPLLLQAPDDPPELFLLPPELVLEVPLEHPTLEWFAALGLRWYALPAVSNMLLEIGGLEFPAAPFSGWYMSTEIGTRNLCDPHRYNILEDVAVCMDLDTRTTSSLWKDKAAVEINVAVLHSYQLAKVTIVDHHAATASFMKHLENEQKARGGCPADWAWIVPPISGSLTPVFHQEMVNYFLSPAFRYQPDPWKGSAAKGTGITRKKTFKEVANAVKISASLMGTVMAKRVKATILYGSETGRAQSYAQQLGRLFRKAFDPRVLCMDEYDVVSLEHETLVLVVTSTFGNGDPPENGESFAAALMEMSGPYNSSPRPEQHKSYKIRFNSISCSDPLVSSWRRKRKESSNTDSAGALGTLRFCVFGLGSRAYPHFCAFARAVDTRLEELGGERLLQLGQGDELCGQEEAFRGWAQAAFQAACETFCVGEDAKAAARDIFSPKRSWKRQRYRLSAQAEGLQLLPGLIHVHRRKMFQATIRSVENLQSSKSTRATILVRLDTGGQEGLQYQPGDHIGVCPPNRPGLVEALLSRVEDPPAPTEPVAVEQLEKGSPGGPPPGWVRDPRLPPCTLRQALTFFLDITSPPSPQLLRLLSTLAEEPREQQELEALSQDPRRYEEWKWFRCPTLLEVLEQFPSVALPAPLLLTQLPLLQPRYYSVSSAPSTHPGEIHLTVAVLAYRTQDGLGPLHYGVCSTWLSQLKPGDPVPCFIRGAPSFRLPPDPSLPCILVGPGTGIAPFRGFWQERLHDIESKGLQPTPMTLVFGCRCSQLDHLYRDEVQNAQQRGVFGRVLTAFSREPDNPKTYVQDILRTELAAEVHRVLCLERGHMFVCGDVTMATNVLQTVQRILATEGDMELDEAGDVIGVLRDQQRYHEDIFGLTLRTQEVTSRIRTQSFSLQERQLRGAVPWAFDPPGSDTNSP
Sequence of Nitric oxide synthase (neuronal, human recombinant) nNOS (P29475 whole entry): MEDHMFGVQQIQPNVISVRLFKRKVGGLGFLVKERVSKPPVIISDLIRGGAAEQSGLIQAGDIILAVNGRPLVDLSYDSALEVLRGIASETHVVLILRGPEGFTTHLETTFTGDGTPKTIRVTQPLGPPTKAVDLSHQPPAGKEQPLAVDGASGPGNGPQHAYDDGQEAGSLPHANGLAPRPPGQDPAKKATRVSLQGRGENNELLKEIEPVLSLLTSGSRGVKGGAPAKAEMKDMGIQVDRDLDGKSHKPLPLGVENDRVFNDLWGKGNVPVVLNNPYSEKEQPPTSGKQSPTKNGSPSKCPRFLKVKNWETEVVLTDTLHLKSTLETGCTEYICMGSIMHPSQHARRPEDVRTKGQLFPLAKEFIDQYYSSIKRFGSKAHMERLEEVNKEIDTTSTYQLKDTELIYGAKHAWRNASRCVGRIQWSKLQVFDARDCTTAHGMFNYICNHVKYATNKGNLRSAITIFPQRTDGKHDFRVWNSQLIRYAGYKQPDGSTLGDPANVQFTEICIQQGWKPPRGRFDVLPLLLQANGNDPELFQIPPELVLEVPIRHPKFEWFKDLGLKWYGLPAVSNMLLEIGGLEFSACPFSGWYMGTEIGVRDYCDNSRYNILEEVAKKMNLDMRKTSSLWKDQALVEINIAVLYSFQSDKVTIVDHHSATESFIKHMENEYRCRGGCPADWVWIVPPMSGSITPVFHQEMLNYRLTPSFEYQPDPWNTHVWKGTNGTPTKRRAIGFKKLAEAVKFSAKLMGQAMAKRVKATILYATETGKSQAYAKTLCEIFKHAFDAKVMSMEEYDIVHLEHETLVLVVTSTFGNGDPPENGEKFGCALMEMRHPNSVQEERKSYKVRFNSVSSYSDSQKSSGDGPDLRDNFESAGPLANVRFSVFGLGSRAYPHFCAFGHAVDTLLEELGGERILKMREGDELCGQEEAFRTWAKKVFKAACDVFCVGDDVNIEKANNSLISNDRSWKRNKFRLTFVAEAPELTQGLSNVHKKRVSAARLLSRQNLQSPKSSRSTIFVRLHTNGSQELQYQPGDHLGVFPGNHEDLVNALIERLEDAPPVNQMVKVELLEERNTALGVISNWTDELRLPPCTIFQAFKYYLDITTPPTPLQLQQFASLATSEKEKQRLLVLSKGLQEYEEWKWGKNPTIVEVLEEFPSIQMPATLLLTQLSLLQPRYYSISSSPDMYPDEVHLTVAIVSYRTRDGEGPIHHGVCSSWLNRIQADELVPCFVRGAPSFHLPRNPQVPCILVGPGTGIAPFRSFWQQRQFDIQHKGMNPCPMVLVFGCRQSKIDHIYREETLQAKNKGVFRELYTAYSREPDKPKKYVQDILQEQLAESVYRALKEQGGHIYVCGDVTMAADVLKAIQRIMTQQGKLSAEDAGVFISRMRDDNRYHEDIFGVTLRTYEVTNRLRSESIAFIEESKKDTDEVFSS

Usually IC50 stands for the concentration at which inhibition is half-maximal. For the compound `CCN(CC)CCN1C(=O)CCc2cc(NC(=N)c3cccs3)ccc21` [Example 2, N-(1-(2-(diethylamino)ethyl)-2-oxo-1,2,3,4-tetrahydroquinolin-6-yl)thiophene-2-carboximidamide], the figures for the IC50 in experiment [1] (read-out: hnNOS IC50), in experiment [2] (read-out: heNOS IC50) and in experiment [3] (setting [4]) were 2210 nM, 73.6 µM and 22 µM, respectively.

As to `N=C(Nc1ccc2c(c1)CCC(=O)N2CCCN1CCOCC1)c1cccs1` [Example 5, N-(1-(3-morpholinopropyl)-2-oxo-1,2,3,4-tetrahydroquinolin-6-yl)thiophene-2-carboximidamide], the “Selectivity eNOS/nNOS” value in experiment [1] was determined as 19.2. For the same compound, the IC50 was determined as 5460 nM in experiment [1] (setting [5]) and 105 µM in experiment [2] (setting [6]).

`N=C(Nc1ccc2c(c1)CCC(=O)N2CCN1CCCC1)c1cccs1` [Example 6, N-(2-oxo-1-(2-(pyrrolidin-1-yl)ethyl)-1,2,3,4-tetrahydroquinolin-6-yl)thiophene-2-carboximidamide]: the IC50 is 165 nM in experiment [1] (setting [5]), 29.8 µM in experiment [2] (read-out: heNOS IC50) and > 100 µM in experiment [3] (setting [4]).

Regarding `CCN(CC)CCCN1C(=O)CCc2cc(NC(=N)c3cccs3)ccc21` [Example 7, N-(1-(3-(diethylamino)propyl)-2-oxo-1,2,3,4-tetrahydroquinolin-6-yl)thiophene-2-carboximidamide], in experiment [1], the “Selectivity eNOS/nNOS” value is reported as 16. For the same compound, the IC50 in experiment [1] (setting [5]) is 869 nM; in experiment [2] (setting [6]), 13.9 µM; in experiment [3] (setting [4]), > 100 µM.

Consider `N=C(Nc1ccc2c(c1)CCC(=O)N2CCCN1CCCC1)c1cccs1` [Example 8, N-(1-(3-(pyrrolidin-1-yl)propyl)-2-oxo-1,2,3,4-tetrahydroquinolin-6-yl)thiophene-2-carboximidamide], for which the IC50 in experiment [2] (read-out: heNOS IC50) was found to be 24.5 µM.

In the case of `N=C(Nc1ccc2c(c1)CCC(=O)N2CCCN1CCCCC1)c1cccs1` [Example 9, N-(1-(3-(piperidin-1-yl)propyl)-2-oxo-1,2,3,4-tetrahydroquinolin-6-yl)thiophene-2-carboximidamide], the “Selectivity eNOS/nNOS” value in experiment [1] (setting [7]) turned out to be 12.8. For the same compound, the IC50 in experiment [1] (setting [5]) was found to be 798 nM; in experiment [2] (setting [6]), 10.2 µM.

On to `CN(C)CCCC1Cc2cc(NC(=N)c3cccs3)ccc2NC1=O.Cl.Cl` (stereo not drawn) [Example 10, N-(3-(3-(dimethylamino)propyl)-2-oxo-1,2,3,4-tetrahydroquinolin-6-yl)thiophene-2-carboximidamide dihydrochloride], for which the “Selectivity eNOS/nNOS” value in experiment [1] (setting [7]) came to 54.5. The results for the IC50 in experiment [1] (setting [5]), in experiment [2] (setting [6]) and in experiment [3] (setting [4]) were 198 nM, 10.8 µM and > 100 µM, respectively.

As for `CN1CCCC1CCN1C(=O)CCc2cc(NC(=N)c3cccs3)ccc21` (stereo not drawn) [Example 13, N-(1-(2-(1-methylpyrrolidin-2-yl)ethyl)-2-oxo-1,2,3,4-tetrahydroquinolin-6-yl)thiophene-2-carboximidamide], the “Selectivity eNOS/nNOS” value in experiment [1] (setting [7]) is 62.6. Moreover, the IC50 in experiment [1] (setting [5]) came out at 1100 nM; in experiment [2] (setting [6]), 68.9 µM.

`CC(CN1C(=O)CCc2cc(NC(=N)c3cccs3)ccc21)N1CCCC1` (stereo not drawn) [Example 15, N-(2-oxo-1-(2-(pyrrolidin-1-yl)propyl)-1,2,3,4-tetrahydroquinolin-6-yl)thiophene-2-carboximidamide]: in experiment [1] (setting [7]), the “Selectivity eNOS/nNOS” value is recorded as 9.1. The IC50 in experiment [1] (setting [5]) is 5800 nM; in experiment [2] (setting [6]) it was 52.6 µM; in experiment [3] (setting [4]), > 100 µM.

Consider `CC(CN1CCCc2cc(NC(=N)c3cccs3)ccc21)N1CCCC1` (stereo not drawn) [Example 16, N-(1-(2-(pyrrolidin-1-yl)propyl)-1,2,3,4-tetrahydroquinolin-6-yl)thiophene-2-carboximidamide], for which the “Selectivity eNOS/nNOS” value in experiment [1] (setting [7]) was found to be 48.1. In addition, the results for the IC50 in experiment [1] (setting [5]), in experiment [2] (setting [6]) and in experiment [3] (setting [4]) were 700 nM, 33.7 µM and 19.4 µM, respectively.

`CC1C(=O)N(C2CCN(C)CC2)c2ccc(NC(=N)c3cccs3)cc21` (stereo not drawn) [Example 17, N-(3-Methyl-1-(1-methylpiperidin-4-yl)-2-oxoindolin-5-yl)thiophene-2-carboximidamide]: in experiment [1], the “Selectivity eNOS/nNOS” value was found to be 31. The IC50 in experiment [1] (hnNOS IC50) amounted to 4900 nM; in experiment [2] (heNOS IC50) it was 155 µM; in experiment [3] (hiNOS IC50), 57 µM.

Consider `CN1CCC(N2CCCc3cc(NC(=N)c4cccs4)ccc32)CC1` [Example 18, N-(1-(1-methylpiperidin-4-yl)-1,2,3,4-tetrahydroquinolin-6-yl)thiophene-2-carboximidamide], for which the “Selectivity eNOS/nNOS” value in experiment [1] was found to be 5.7. The IC50 in experiment [1] (hnNOS IC50) was 8800 nM; in experiment [2] (heNOS IC50), 50 µM; in experiment [3] (hiNOS IC50) it was > 100 µM.

Regarding `CN1CCC(N2C(=O)CCc3cc(NC(=N)c4cccs4)ccc32)CC1` [Example 22, N-(1-(1-Methylpiperidin-4-yl)-2-oxo-1,2,3,4-tetrahydroquinolin-6-yl)thiophene-2-carboximidamide], the “Selectivity eNOS/nNOS” value in experiment [1] is given as 87.8. The half-maximal inhibitory concentration (IC50) in experiment [1] (hnNOS IC50) is 1720 nM; in experiment [2] (heNOS IC50), 151 µM; in experiment [3] (hiNOS IC50), > 100 µM.

Regarding `CN(C)CCN1C(=O)CCCc2cc(NC(=N)c3cccs3)ccc21` [Example 25, N-(1-(2-(Dimethylamino)ethyl)-2-oxo-2,3,4,5-tetrahydro-1H-benzo[b]azepin-7-yl)thiophene-2-carboximidamide], the “Selectivity eNOS/nNOS” value in experiment [1] (setting [7]) was found to be 12.3. The IC50 in experiment [1] (setting [5]) is 12300 nM; in experiment [2] (setting [6]), 151 µM; in experiment [3] (setting [4]), > 100 µM.

Turning to `CNCCN1CCCCc2cc(NC(=N)c3cccs3)ccc21` [Example 36, N-(1-(2-(Methylamino)ethyl)-2,3,4,5-tetrahydro-1H-benzo[b]azepin-7-yl)thiophene-2-carboximidamide], the IC50 in experiment [1] (setting [5]) amounted to 380 nM; in experiment [2] (read-out: heNOS IC50) it was 47.1 µM.

With `CN1CCCC1CCN1CCCCc2cc(NC(=N)c3cccs3)ccc21` (stereo not drawn) [Example 45, N-(1-(2-(1-Methylpyrrolidin-2-yl)ethyl)-2,3,4,5-tetrahydro-1H-benzo[b]azepin-7-yl)thiophene-2-carboximidamide], the figures for the IC50 in experiment [1] (setting [5]) and in experiment [2] (read-out: heNOS IC50) were 1800 nM and 30.8 µM, respectively.

For `CN1CCC(N2CCCCc3cc(NC(=N)c4cccs4)ccc32)C1` (stereo not drawn) [Example 46, N-(1-(1-Methylpyrrolidin-3-yl)-2,3,4,5-tetrahydro-1H-benzo[b]azepin-7-yl)thiophene-2-carboximidamide], the IC50 in experiment [1] (read-out: hnNOS IC50) stood at 80 nM; in experiment [2] (read-out: heNOS IC50), 60.5 µM.

On to `N=C(Nc1ccc2c(c1)CCN2C1CCNC1)c1cccs1` (stereo not drawn) [Example 49, N-(1-(Pyrrolidin-3-yl)indolin-5-yl)thiophene-2-carboximidamide], for which the IC50 in experiment [1] (setting [5]) was 80 nM; in experiment [2] (setting [6]), 5.45 µM.

Regarding `CN1CCC(N2CCc3cc(NC(=N)c4cccs4)ccc32)C1` (stereo not drawn) [Example 50, N-(1-(1-Methylpyrrolidin-3-yl)indolin-5-yl)thiophene-2-carboximidamide], the IC50 stood at 430 nM in experiment [1] (setting [5]) and 21.2 µM in experiment [2] (setting [6]).

As to `CCN(C)CCN1CCCc2cc(NC(=N)c3cccs3)ccc21` [Example 51, N-(1-(2-(ethyl(methyl)amino)ethyl)-1,2,3,4-tetrahydroquinolin-6-yl)thiophene-2-carboximidamide], the “Selectivity eNOS/nNOS” value in experiment [1] was 370. The IC50 stood at 90 nM in experiment [1] (setting [5]) and 33.3 µM in experiment [2] (read-out: heNOS IC50).

Consider `CNCCN1CCCc2cc(NC(=N)c3cccs3)cc(F)c21.Cl.Cl` [Example 52, N-(8-fluoro-1-(2-(methylamino)ethyl)-1,2,3,4-tetrahydroquinolin-6-yl)thiophene-2-carboximidamide dihydrochloride], for which the “Selectivity eNOS/nNOS” value in experiment [1] (setting [7]) was 45. The IC50 in experiment [1] (setting [5]) worked out at 300 nM; in experiment [2] (setting [6]), 13.5 µM.

`CCN(CC)CCN1CCCc2cc(NC(=N)c3cccs3)ccc21` [Example 53, N-(1-(2-(diethylamino)ethyl)-1,2,3,4-tetrahydroquinolin-6-yl)thiophene-2-carboximidamide]: the IC50 in experiment [1] (setting [5]) came out at 250 nM.

As for `CNCCCN1CCCc2cc(NC(=N)c3cccs3)ccc21` [Example 63, N-(1-(3-(methylamino)propyl)-2,3,4-tetrahydroquinolin-6-yl)thiophene-2-carboximidamide], the IC50 in experiment [1] (setting [5]) stood at 235 nM; in experiment [2] (read-out: heNOS IC50), 22.5 µM.

Regarding `N=C(Nc1ccc2c(c1)CCCN2CCN1CCOCC1)c1cccs1` [Example 64, N-(1-(2-morpholinoethyl)-1,2,3,4-tetrahydroquinolin-6-yl)thiophene-2-carboximidamide], the “Selectivity eNOS/nNOS” value in experiment [1] (setting [7]) was found to be 121. Further, the IC50 is 680 nM in experiment [1] (setting [5]) and 82.5 µM in experiment [2] (setting [6]).

As for `N=C(Nc1ccc2c(c1)CCN2CCN1CCCC1)c1cccs1` [Example 67, N-(1-(2-(Pyrrolidin-1-yl)ethyl)indolin-5-yl)thiophene-2-carboximidamide], the “Selectivity eNOS/nNOS” value in experiment [1] (setting [7]) turned out to be 292. The IC50 in experiment [1] (setting [5]) was determined as 92 nM; in experiment [2] (setting [6]) it was 26.9 µM.

Take `CN(C)CCN1CCc2cc(NC(=N)c3cccs3)ccc21` [Example 68, N-(1-(2-(Dimethylamino)ethyl)indolin-5-yl)thiophene-2-carboximidamide]: the “Selectivity eNOS/nNOS” value in experiment [1] (setting [7]) was 316. In addition, the half-inhibitory concentration (IC50) amounted to 41 nM in experiment [1] (setting [5]) and 12.9 µM in experiment [2] (setting [6]).

Take `CN(CCO)CCCN1CCCc2cc(NC(=N)c3cccs3)ccc21` [Example 69, N-(1-(3-((2-Hydroxyethyl)(methyl)amino)propyl)-1,2,3,4-tetrahydroquinolin-6-yl)thiophene-2-carboximidamide]: the “Selectivity eNOS/nNOS” value in experiment [1] (setting [7]) is given as 511. The IC50 came to 78 nM in experiment [1] (setting [5]) and 39.9 µM in experiment [2] (setting [6]).

As to `CNC1CCC(N2CCc3cc(NC(=N)c4cccs4)ccc32)CC1` (stereo not drawn) [Example 70, N-(1-(4-(Methylamino)cyclohexyl)indolin-5-yl)thiophene-2-carboximidamide], the “Selectivity eNOS/nNOS” value in experiment [1] (setting [7]) came out at 86.5. Besides, the IC50 in experiment [1] (setting [5]) came out at 210 nM; in experiment [2] (setting [6]) it was 17.9 µM.

On to `CNC1CCC(N2CCc3cc(NC(=N)c4cccs4)ccc32)CC1` (stereo not drawn) [Example 71, N-(1-(4-(Methylamino)cyclohexyl)indolin-5-yl)thiophene-2-carboximidamide], for which the half-inhibitory concentration (IC50) is 105 nM in experiment [1] (setting [5]) and 34.1 µM in experiment [2] (setting [6]).
